Experimental data published in patent publication US6083967A, “S-oxide and S,S-dioxide tetrahydrothiopyran phenyloxazolidinones” (Pharmacia & Upjohn Company, priority 1998, dated 2000).
pKi: −log10 of the molar value. ≈ marks a conversion by molar mass, not a printed value.

What was measured:
S. aureus UC 9213 = assay: MIC by agar dilution against S. aureus UC 9213; format: cell-based; conditions: Staphylococcus aureus, UC9213, in vitro
From the text: (§1) The oxazolidinone antibacterial agents of this invention have useful activity against a variety of organisms. The in vitro activity of compounds of this invention can be assessed by standard testing procedures such as the determination of minimum inhibitory concentration (MIC) by agar dilution as described in "Approved Standard. Methods for Dilution Antimicrobial Susceptibility Tests for Bacteria That Grow Aerobically", 3rd. ed., published 1993 by the National Committee for Clinical Laboratory Standards, Villanova, Pa., USA.

H. influenzae 30063 = assay: MIC by agar dilution against H. influenzae 30063; format: cell-based; conditions: Haemophilus influenzae, in vitro
From the text: as §1

human MAO A = molecular target: T1, human MAO A (Homo sapiens, UniProt P21397); assay: Continuous spectrophotometric assay of inhibitory activity to human MAO-A; format: biochemical; conditions: pH 7.3, 37° C., 80 μM substrate, 1% DMSO, 15 minutes pre-incubation; read-out: Ki, inhibition of human MAO A
T1 construct: Human placental MAO A is solubilized and purified as described; from tissue; host or cells: human placenta (enzyme supplied by Dr. Neal Castagnoli Jr's lab, Virginia Technical University)
T1 sequence (P21397 1-527): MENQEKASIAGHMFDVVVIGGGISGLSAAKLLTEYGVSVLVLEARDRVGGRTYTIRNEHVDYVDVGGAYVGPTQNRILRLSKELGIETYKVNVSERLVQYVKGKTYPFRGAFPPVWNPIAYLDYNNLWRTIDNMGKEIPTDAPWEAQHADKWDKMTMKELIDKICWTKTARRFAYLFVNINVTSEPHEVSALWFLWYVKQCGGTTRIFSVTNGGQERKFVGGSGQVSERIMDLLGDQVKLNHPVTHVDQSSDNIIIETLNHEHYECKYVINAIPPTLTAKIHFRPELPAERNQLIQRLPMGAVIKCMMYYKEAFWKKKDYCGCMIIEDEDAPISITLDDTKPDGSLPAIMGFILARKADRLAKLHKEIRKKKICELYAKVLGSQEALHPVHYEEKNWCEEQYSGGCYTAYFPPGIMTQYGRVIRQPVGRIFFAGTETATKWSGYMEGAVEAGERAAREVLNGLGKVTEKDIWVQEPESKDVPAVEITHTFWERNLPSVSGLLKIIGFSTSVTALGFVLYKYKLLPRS
From the text: The continuous spectrophotometric assay for measuring MAO activity is based on a colored oxidation product of the chromogenic substrate, 1-methyl-4-(1-methyl-2-pyrryl)-1,2,3,6-tetrahydropyridine, by MAO enzymes. The product is stable for many days at room temperature. The conversion of the substrate to the oxidation product is followed continuously from the moment of mixing of the MAO enzyme with the substrate and the initial reaction rate curve is directly observed. The bright yellow-green oxidation product has a peak absorption at 421 nm with a broad band that can be measured between 390 nm to 440 nm. Thus, the assay can be performed on the least sophisticated spectrophotometric equipment.
Human placental MAO A is solubilized and purified as described in N. Castagnoli Jr. et al., J. Med Chem. Vol. 39, pp. 4756-4761 (1996) and J. I. Salach et al., J. of Bio. Chem., Vol. 260, p. 13199 (1985). The human placental MAO A is obtained as a concentrated solution (5 nmols per ml). Bovine liver MAO B is purified as described N. Castagnoli Jr. et al., J. Med Chem., Vol. 39, pp. 4756-4761 (1996) and J. I. Salach et al., Methods Enzymol., Vol. 142, pp […] (1987). The bovine liver MAO B is obtained as a concentrated solution (8 nmols per ml). Working stocks of the enzyme solutions are made by 1/50 dilution of initial stocks into 50 mM sodium phosphate and optionally 10% glycerol. The solutions are kept on ice until final dilution into the assay. Alternatively, the frozen MAO enzymes may be diluted 800-3200 fold into the 50 mM sodium phosphate buffer immediately before use. This method is useful when screening a large number of oxazolidinones.
Oxazolidinones are prepared in DMSO at a concentration of 50 mM. Serial dilutions of the 50 mM stock solution are made in DMSO to form additional stock solutions ranging from […] to 0.3125 mM. The stock solutions are then frozen until use. The stocks are diluted 1/100 into the final enzyme assay volume at the time of assay.
Typically, the enzyme, along with an oxazolidinone inhibitor, are preincubated for approximately 15 minutes in the sodium phosphate buffer prior to assay. The reactions are started by addition of the substrate. Initial velocities are generally collected over an interval of one to sixty minutes.
The assay functions well in the spectrophotometer cuvette for evaluating single oxazolidinone's MAO inhibitory activity. The assay has also been successfully adapted to operate in high throughput microtiterplate format (i.e., 96, 384 and 1536 well plate readers). Hundreds of assays can be run simultaneously. Assay volumes are 250 μL and the wells have an effective path length of 0.75 cm. Generally, the final composition of the assay in the microtiterplate comprises […] sodium phosphate (pH=7.3), oxazolidinone having concentration ranging up to 500 μM, 1% DMSO, 80 μM substrate (MAO A) or 200 μM substrate (MAO B), and sufficient enzyme to produce an absorbance change from 0.0005 to 0.050 per minute at 421 nm. The reaction is run at 37° C., and rapid temperature equilibration of the assay solution is achieved by preincubating the plate and stock solutions at about 37° C. The reaction is followed by recording the increase in absorbance at 421 nm. The oxidation product has an extinction coefficient of 25,000 M^-1 cm^-1 at 420. See: N. Castagnoli Jr. et al., J. Med Chem., Vol. 39, pp. 4756-4761 (1996). Initial rates are determined by linear regression of the progress curves over an absorbance change of 0.06-0.12 at 421 nm. This range represents a substrate consumption of approximately 5% in the assay. The percentage inhibition of an oxazolidinone is determined from the following equation
In the above equation, the term "negative control" refers to a complete assay with 1% of DMSO but no MAO enzyme. The term "positive control" refers to a complete assay with 1% of DMSO but no inhibitor. The term "rate (I)" refers to the reaction rate under a complete assay conditions. […]

| MIC (S. aureus UC 9213) [µg/mL] | MIC (H. influenzae 30063) [µg/mL] | pKi (human MAO A) | Structure (SMILES) |
| --- | --- | --- | --- |
| 8 (≈ 20.9 µM) | 16 (≈ 41.8 µM) | < 2.52 | CCC(=O)NC[C@H]1CN(c2ccc([C@H]3CC[S@@+]([O-])CC3)c(F)c2)C(=O)O1 [Example 2, (-)-N-[[(5S)-3-[3-fluoro-4-(cis-tetrahydro-1-oxido-2H-thiopyran-4-yl)phenyl]-2-oxo-5-oxazolidinyl]methyl]propanamide] |
| 8 (≈ 20.3 µM) | 16 (≈ 40.6 µM) | 3.13 | O=C(NC[C@H]1CN(c2ccc([C@H]3CC[S@@+]([O-])CC3)c(F)c2)C(=O)O1)C1CC1 [Example 3, (-)-N-[[(5S)-3-[3-fluoro-4-(cis-tetrahydro-1-oxido-2H-thiopyran-4-yl)phenyl]-2-oxo-5-oxazolidinyl]methyl]cyclopropanecarboxamide] |
| 2 (≈ 4.57 µM) | 8 (≈ 18.3 µM) | 2.59 | O=C(NC[C@H]1CN(c2ccc([C@H]3CC[S@@+]([O-])CC3)c(F)c2)C(=O)O1)C(Cl)Cl [Example 4, (-)-2,2-Dichloro-N-[[(5S)-3-[3-fluoro-4-(cis-tetrahydro-1-oxido-2H-thiopyran-4-yl)phenyl]-2-oxo-5-oxazolidinyl]methyl]acetamide] |
| 8 (≈ 20.3 µM) | 16 (≈ 40.6 µM) | < 2.52 | O=C(NC[C@H]1CN(c2ccc([C@H]3CC[S@+]([O-])CC3)c(F)c2)C(=O)O1)C1CC1 [Example 8, (-)-N-[[(5S)-3-[3-fluoro-4-(trans-tetrahydro-1-oxido-2H-thiopyran-4-yl)phenyl]-2-oxo-5-oxazolidinyl]methyl]cyclopropanecarboxamide] |
| 2 (≈ 4.41 µM) | 2 (≈ 4.41 µM) | < 2.52 | O=C(NC[C@H]1CN(c2ccc(C3CCS(=O)(=O)CC3)c(F)c2)C(=O)O1)C(Cl)Cl [Example 6, (-)-2,2-dichloro-N-[[(5S)-3-[3-fluoro-4-(tetrahydro-1,1-dioxido-2H-thiopyran-4-yl)phenyl]-2-oxo-5-oxazolidinyl]methyl]acetamide] |
| 4 (≈ 10 µM) | 8 (≈ 20.1 µM) | 2.52 | CCC(=O)NC[C@H]1CN(c2ccc(C3CCS(=O)(=O)CC3)c(F)c2)C(=O)O1 [Example 5, (-)-N-[[(5S)-3-[3-fluoro-4-(tetrahydro-1,1-dioxido-2H-thiopyran-4-yl)phenyl]-2-oxo-5-oxazolidinyl]methyl]propanamide] |
| 1 (≈ 2.29 µM) | 2 (≈ 4.57 µM) | 3.40 | O=C(NC[C@H]1CN(c2ccc([C@H]3CC[S@+]([O-])CC3)c(F)c2)C(=O)O1)C(Cl)Cl [Example 9, (-)-2,2-dichloro-N-[[(5S)-3-[3-fluoro-4-(trans-tetrahydro-1-oxido-2H-thiopyran-4-yl)phenyl]-2-oxo-5-oxazolidinyl]methyl]acetamide] |
| 4 (≈ 10.5 µM) | 4 (≈ 10.5 µM) | 3.04 | CCC(=O)NC[C@H]1CN(c2ccc([C@H]3CC[S@+]([O-])CC3)c(F)c2)C(=O)O1 [Example 7, (-)-N-[[(5S)-3-[3-fluoro-4-(trans-tetrahydro-1-oxido-2H-thiopyran-4-yl)phenyl]-2-oxo-5-oxazolidinyl]methyl]propanamide] |
| 4 (≈ 10.9 µM) | 8 (≈ 21.7 µM) | 3.19 | CC(=O)NC[C@H]1CN(c2ccc([C@H]3CC[S@@+]([O-])CC3)c(F)c2)C(=O)O1 [Example 1, (-)-N-[[(5S)-3-[3-fluoro-4-(cis-tetrahydro-1-oxido-2H-thiopyran-4-yl)phenyl]-2-oxo-5-oxazolidinyl]methyl]acetamide] |
